Test results: patent publication US20100305159A1, “CRYSTALLINE FORM OF PIPERIDINE COMPOUND” (MITSUBISHI TANABE PHARMA CORPORATION, priority 2007, published 2010)
Entries after “also recorded” stand apart in the source; their conditions may differ.

What was measured:
[1] = biological target: T1, human neurokinin-1 receptor (Homo sapiens, UniProt P25103); test: Neurokinin-1 (NK1) receptor binding inhibitory action, [3H](Sar9, Met11(O2)) Substance P on IM-9 cells
T1 construct: Human lymphoblastoma IM-9 cells (5 10^6 cell/tube) were reacted with 0.3 nM; endogenous in cells; host or cells: human lymphoblastoma IM-9 cells
T1 sequence (P25103 whole entry): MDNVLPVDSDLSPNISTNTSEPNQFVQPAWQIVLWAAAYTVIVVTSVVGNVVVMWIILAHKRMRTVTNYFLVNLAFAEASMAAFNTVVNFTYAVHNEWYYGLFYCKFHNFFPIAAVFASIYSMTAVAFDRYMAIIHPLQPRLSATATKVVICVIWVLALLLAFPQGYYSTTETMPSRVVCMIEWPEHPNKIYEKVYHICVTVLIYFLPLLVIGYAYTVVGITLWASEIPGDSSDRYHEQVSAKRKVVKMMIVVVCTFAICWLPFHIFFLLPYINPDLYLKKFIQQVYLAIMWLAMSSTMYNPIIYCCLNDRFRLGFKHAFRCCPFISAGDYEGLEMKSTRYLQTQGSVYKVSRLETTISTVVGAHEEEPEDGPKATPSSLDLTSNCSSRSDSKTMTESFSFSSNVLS
From the text: Measurements on the crystalline form of the present invention can be carried out, for example, according to the method described in European Journal of Pharmacology, vol. 254, pages 221-227 (1994) with respect to a neurokinin-1 receptor binding action, and according to the method described in European Journal of Pharmacology, vol. 265, pages 179-183 (1994) with respect to an action against a neurokinin-1 receptor […] inducing action, further according to the method described in Journal of Urology, vol.
Device: Dynamic Vapor Sorption device DVS-1 manufactured by Surface Measurement Systems, UK Amount of specimen: 10 mg Measured temperature: 25° C. Relative humidity range: 0 to 90% Experimental example 1 Neurokinin-1 (NK1) receptor binding inhibitory action Human lymphoblastoma IM-9 cells (5 10^6 cell/tube) were reacted with 0.3 nM [^3H] (Sar^9, Met^11 (O2)) Substance P and the prepared Type II crystalline form of (2R,4S)-1-{N-(3,5-bistrifluoromethylbenzyl)-N-methyl}aminocarbonyl-2-(4-fluoro-2-methylphenyl)-4-(2-hydroxyethylaminocarboxyloxy)-piperidine in 0.5 ml of 50 mM Tris-HCl (pH 7.4, 25° C.) containing 150 mM NaCl, 3 mM MnCl2, 40 μg/ml bacitracin, 4 μg/ml Leupeptin, 4 μg/ml Chymostatin, 4 μg/ml Phosphoramidon and 0.02% bovine serum albumin at room temperature for 60 minutes according to the method described in European Journal of Pharmacology, vol. 254, pp. 221-227 (1994). The reaction mixture was subjected to suction filtration with a GF/C glass filter which had previously been treated with 0.3% polyethyleneimine, washed with 0.3 ml of ice-cold reaction buffer containing no bovine serum albumin and various kinds of protein decomposition enzyme inhibitors twice, and radioactivity (dpm) on the filter was measured by a liquid scintillation counter. A specific binding amount was obtained by subtracting non-specific binding amount (L-703606 (10 μM) having NK1 receptor antagonistic action) from a total binding amount.

[2] = Stability at 40° C./75% RH in a glass bottle with an open state for 4 weeks; format: physicochemical
Experimental: Stabilities of crystalline forms of Type I, Type II and Type VII, and amorphous of (2R,4S)-1-{N-(3,5-bistri-fluoromethylbenzyl)-N-methyl}aminocarbonyl-2-(4-fluoro-2-methylphenyl)-4-(2-hydroxyethylaminocarboxyloxy)piperidine were observed under the conditions of at 40° C./75% RH in a glass bottle with an open state for 4 weeks. […] Accordingly, improvement in stability according to crystallization could be confirmed.

[3] = Hygroscopicity by Dynamic Vapor Sorption; format: physicochemical; conditions: DVS-1, 25° C., relative humidity range 0 to 90%, 10 mg
Experimental: With regard to Type I and Type II crystalline forms of (2R,4S)-1-{N-(3,5-bistrifluoromethylbenzyl)-N-methyl}-aminocarbonyl-2-(4-fluoro-2-methylphenyl)-4-(2-hydroxy-ethylaminocarboxyloxy)piperidine, hygroscopicity was measured according to the following mentioned conditions.
Device: Dynamic Vapor Sorption device DVS-1 manufactured by Surface Measurement Systems, UK Amount of specimen: 10 mg Measured temperature: 25° C. Relative humidity range: 0 to 90% Experimental example 1 Neurokinin-1 (NK1) receptor binding inhibitory action Human lymphoblastoma IM-9 cells (5 10^6 cell/tube) were reacted with 0.3 nM [^3H] […] The reaction mixture was subjected to suction filtration with a GF/C glass filter which had previously been treated with 0.3% polyethyleneimine, washed with 0.3 ml of ice-cold reaction buffer containing no bovine serum albumin and various kinds of protein decomposition enzyme inhibitors twice, and radioactivity (dpm) on the filter was measured by a liquid scintillation counter. […]

SMILES | IC50 ([1]; Human lymphoblastoma IM-9 cells, 0.3 nM [3H](Sar9, Met11(O2)) Substance P, room temperature 60 minutes, read-out: IC50 value, NK1 receptor binding inhibition) | Ki ([1]; Human lymphoblastoma IM-9 cells, 0.3 nM [3H](Sar9, Met11(O2)) Substance P, room temperature 60 minutes, read-out: Ki value, NK1 receptor binding inhibition) | neurokinin-1 receptor binding action (in words) ([1]; human NK1 receptor, IM-9 cells) | change in appearance [2] | hygroscopicity (change in weight under high humidity conditions) [3] | moisture absorption [2]
Cc1cc(F)ccc1[C@H]1C[C@@H](OC(=O)NCCO)CCN1C(=O)N(C)Cc1cc(C(F)(F)F)cc(C(F)(F)F)c1 [Type II, (2R,4S)-1-{N-(3,5-bistrifluoromethylbenzyl)-N-methyl}aminocarbonyl-2-(4-fluoro-2-methylphenyl)-4-(2-hydroxyethylaminocarbonyloxy)piperidine] | 4.59 nM | 2.22 nM | inhibited said Substance P with concentration-dependently; also recorded: showed a human neurokinin-1 receptor binding action with concentration-dependently | no change in appearance | no hygroscopicity | 
Cc1cc(F)ccc1[C@H]1C[C@@H](OC(=O)NCCO)CCN1C(=O)N(C)Cc1cc(C(F)(F)F)cc(C(F)(F)F)c1 [Type VII, (2R,4S)-1-{N-(3,5-bistrifluoromethylbenzyl)-N-methyl}aminocarbonyl-2-(4-fluoro-2-methylphenyl)-4-(2-hydroxyethylaminocarbonyloxy)piperidine] |  |  |  | no change in appearance |  | 
Cc1cc(F)ccc1[C@H]1C[C@@H](OC(=O)NCCO)CCN1C(=O)N(C)Cc1cc(C(F)(F)F)cc(C(F)(F)F)c1 [amorphous, (2R,4S)-1-{N-(3,5-bistrifluoromethylbenzyl)-N-methyl}aminocarbonyl-2-(4-fluoro-2-methylphenyl)-4-(2-hydroxyethylaminocarbonyloxy)piperidine] |  |  |  | marked change in appearance (white powder→white lump) |  | moisture absorption was admitted
Cc1cc(F)ccc1[C@H]1C[C@@H](OC(=O)NCCO)CCN1C(=O)N(C)Cc1cc(C(F)(F)F)cc(C(F)(F)F)c1 [Type I, (2R,4S)-1-{N-(3,5-bistrifluoromethylbenzyl)-N-methyl}aminocarbonyl-2-(4-fluoro-2-methylphenyl)-4-(2-hydroxyethylaminocarbonyloxy)piperidine] |  |  |  | no change in appearance | no hygroscopicity | 
